What all share (assay type): cell-based
Assay [1] relates to starch degrading bacteria. The experiment in a line: Prevention of starch degradation in head box stock using chlorine dioxide (ClO2) and zinc; remaining starch by iodine staining. The following applies: for Prevention of starch degradation (in words): 10 mg/l zinc or 5-20 mg/l ClO2 alone; for Starch concentration 4 h: contact time 4 h; for Starch concentration 24 h: contact time 24 h. As to the method: (§1) Prevention of starch degradation was studied using an oxidizing biocide (chlorine dioxide, ClO2) and zinc. Head box stock from packaging board mill, stored at +4° C. after collecting, was amended with 0.8 g/l cooked starch and incubated overnight at 45° C. with 150 rpm shaking to induce the growth of starch degrading bacteria. The stock was divided into 30 ml portions and appropriate amounts of zinc (Zn^2+ from zinc chloride) and ClO2 were added together with a new starch addition (400 mg/l). After 4 h and 24 h incubation (+45° C., 150 rpm) the remaining starch was quantified using iodine staining (Lugol-solution) at 590 nm. An external standard curve was used to convert absorbance values into starch amounts.

Assay [2] concerns starch degrading bacteria. The experiment in a line: Prevention of starch degradation in head box stock using glutaraldehyde and zinc; remaining starch by iodine staining. The note with it: for Prevention of starch degradation (in words): 10 mg/l zinc or 5-30 mg/l glutaraldehyde alone; for Starch concentration 4 h: contact time 4 h; for Starch concentration 24 h: contact time 24 h. Here is the method: as §1, with “a non-oxidizing” for “an oxidizing”, “(glutaraldehyde)” for “(chlorine dioxide, ClO2)”, “glutaraldehyde” for “ClO2”

The test system of assay [3] is starch degrading bacteria. Kind of assay: Prevention of starch degradation in head box stock using monochloramine (MCA) and zinc; remaining starch by iodine staining. The note with it: for Prevention of starch degradation (in words): 10 mg/l zinc or MCA alone; for Starch concentration 4 h: contact time 4 h; for Starch concentration 24 h: contact time 24 h. As to the method:
as §1, with “(monochloramine, MCA)” for “(chlorine dioxide, ClO2)”, “MCA” for “ClO2”

Assay [4] deals with starch degrading bacteria. Kind of assay: Prevention of starch degradation in head box stock using performic acid (PFA) and zinc; remaining starch by iodine staining. The note with it: for Prevention of starch degradation (in words): 10 mg/l zinc or 20-120 mg/l PFA alone; for Starch concentration 4 h: contact time 4 h; for Starch concentration 24 h: contact time 24 h. Here is the method: as §1, with “(performic acid, PFA)” for “(chlorine dioxide, ClO2)”, “PFA” for “ClO2”

The mark [5] stands for this setting: PFA 11 mg/l (active ingredient).
[6] abbreviates: PFA 16 mg/l (active ingredient).
Where [7] appears, read: Zn 10 mg/l (mg Zn2+ per l), 400 mg/l starch added.

As for `[O][Cl+][O-]` [ClO2, chlorine dioxide], the “Prevention of starch degradation (in words)” value (“Prevention” below) is listed as “prevented most of the starch degradation” in assay [1] (4 h) and “did not have marked effect” in assay [1] (24 h). In addition, the “Starch concentration 4 h” value in assay [1] (ClO2 5 mg/l) was found to be 128 mg/L; in assay [1] (ClO2 9 mg/l), 153 mg/L; in assay [1] (ClO2 14 mg/l), 197 mg/L; in assay [1] (ClO2 20 mg/l), 227 mg/L. For the same compound, the “Starch concentration 24 h” value was found to be 5 mg/L in assay [1] (ClO2 5 mg/l), 12 mg/L in assay [1] (ClO2 9 mg/l), 13 mg/L in assay [1] (ClO2 14 mg/l) and 19 mg/L in assay [1] (ClO2 20 mg/l).
As to `O=CCCCC=O` [GL, glutaraldehyde], the “Prevention” value in assay [2] (4 h) was “prevented some of the starch degradation”; in assay [2] (24 h), “did not have marked effect”. Further, the “Starch concentration 4 h” value in assay [2] (GL 5 mg/l (active substance)) came out at 85 mg/L; in assay [2] (GL 10 mg/l (active substance)) it was 103 mg/L; in assay [2] (GL 20 mg/l (active substance)), 96 mg/L; in assay [2] (GL 30 mg/l (active substance)) it was 93 mg/L. The “Starch concentration 24 h” value in assay [2] (GL 5 mg/l (active substance)) was 3 mg/L; in assay [2] (GL 10 mg/l (active substance)), 5 mg/L; in assay [2] (GL 20 mg/l (active substance)) it was 4 mg/L; in assay [2] (GL 30 mg/l (active substance)) it was 6 mg/L.
Take `NCl` [MCA, monochloramine]: the “Prevention” value is given as “prevented most of the starch degradation” in assay [3] (4 h) and “did not have any effect” in assay [3] (24 h). In addition, the figures for the “Starch concentration 4 h” value in assay [3] (MCA 10 mg/l (active chlorine)) and in assay [3] (MCA 20 mg/l (active chlorine)) were 158 mg/L and 189 mg/L, respectively. Besides, the “Starch concentration 24 h” value in assay [3] (MCA 10 mg/l (active chlorine)) is 5 mg/L; in assay [3] (MCA 20 mg/l (active chlorine)), 41 mg/L.
With `O=COO` [PFA, performic acid], the “Prevention” value in assay [4] (4 h) was “prevented most of the starch degradation”; in assay [4] (24 h), “did not have marked effect”. Further, the “Starch concentration 4 h” value amounted to 114 mg/L in assay [4] (PFA 3 mg/l (active ingredient)), 157 mg/L in assay [4] (PFA 5 mg/l (active ingredient)), 208 mg/L in assay [4] (setting [5]) and 215 mg/L in assay [4] (setting [6]). Besides, the “Starch concentration 24 h” value in assay [4] (PFA 3 mg/l (active ingredient)) is 3 mg/L; in assay [4] (PFA 5 mg/l (active ingredient)) it was 3 mg/L; in assay [4] (setting [5]) it was 5 mg/L; in assay [4] (setting [6]), 11 mg/L.
Take `[Cl-].[Cl-].[Zn+2]` [Zn, zinc chloride]: the “Prevention” value is reported as “prevented most of the starch degradation” in assay [1] (4 h); “did not have marked effect” in assay [1] (24 h); “prevented some of the starch degradation” in assay [2] (4 h); “did not have marked effect” in assay [2] (24 h); “prevented most of the starch degradation” in assay [3] (4 h); “did not have any effect” in assay [3] (24 h). Moreover, the “Prevention” value in assay [4] (4 h) is recorded as “prevented most of the starch degradation”; in assay [4] (24 h), “did not have marked effect”. Further, the “Starch concentration 4 h” value in assay [1] (Zn 10 mg/l (mg Zn2+ per l)) was determined as 219 mg/L; in assay [2] (Zn 10 mg/l (mg Zn2+ per l)), 193 mg/L; in assay [3] (setting [7]), 177 mg/L; in assay [4] (Zn 10 mg/l (mg Zn2+ per l)) it was 181 mg/L. Also, the “Starch concentration 24 h” value worked out at 28 mg/L in assay [1] (Zn 10 mg/l (mg Zn2+ per l)), 21 mg/L in assay [2] (Zn 10 mg/l (mg Zn2+ per l)), 8 mg/L in assay [3] (setting [7]) and 38 mg/L in assay [4] (Zn 10 mg/l (mg Zn2+ per l)).

These data come from US9278874B2, “Prevention of starch degradation in pulp, paper or board making processes using zinc ions and an oxidizing biocide” (KEMIRA OYJ, priority 2011, dated 2016).
